Test results from US10392348B2, “2-oxo-3,4-dihydroquinoline compounds as plant growth regulators” (Syngenta Participations AG, priority 2015, dated 2019).
Read-outs that look alike come from different tables or passages of the source.

Experiments:
[1] = test system: soybean plants (variety S20-G7); assay: Reduced plant water use in soybean (foliar spray, repeated weighing of pots); assay type: in vivo; settings: vs negative control; for change in vivo at 500 µM / change in vivo at 31.25 µM / change in vivo at 125 µM: Glycine max, foliar; for % WU 0 DAA AM*: 0 DAA a.m.
Protocol: Compounds were tested for their effect on reducing plant water use as follows. Each compound was dissolved in a blank emulsifiable concentrate (EC) formulation that was then diluted to the desired concentration with water containing additional surfactant (EXTRAVON 1 g/20 L). The compounds were applied by foliar spray to 12 day old soybean plants (variety S20-G7) grown in controlled environment plant growth chambers. Plant water use during the day was assessed by repeated weighing of the pots in which the plants were grown before and after application of the compounds at the indicated times (expressed in days after application (DAA)). The water use data before application was used to correct any differences in water use arising due to non-treatment effects (e.g. due to differences in plant size). The untransformed water use values were subjected to an analysis of covariance, fitting the effect of treatment and using the baseline water use 1 day before application as a covariate.
The results are expressed compared to negative control treatment (diluted EC formulation without active ingredient but with EXTRAVON 1 g/20 L).
Application of the chemicals (0 DAA) takes place approximately between 08:00 and 09:30 a.m. WU is measured within day time (chamber light is on 06:00 to 20:00) at these timepoints: 0 DAA a.m. (10:30-12:50), 0 DAA p.m. (14:00-19:50), 1 DAA a.m. (7:30-12:50), 1 DAA p.m. (14:00-19:50), 2 DAA a.m. (07:30-12:50) and 2 DAA p.m. (14:00-19:50). The cumulative total WU (0-2.5 DAA) is calculated by summing the WU data mentioned above.

[2] = 0 h, Table B1, sprayed at 500 μM, 0 DAA a.m. (10:30-12:50), read-out: % WU 0 DAA AM
[3] = 24 h, Table B1, sprayed at 500 μM, 1 DAA a.m. (7:30-12:50), read-out: % WU 1DAA AM
[4] = 24 h, Table B1, sprayed at 500 μM, 1 DAA p.m. (14:00-19:50), read-out: % WU 1DAA PM
[5] = 48 h, Table B1, sprayed at 500 μM, 2 DAA a.m. (07:30-12:50), read-out: % WU 2 DAA AM
[6] = 48 h, Table B1, sprayed at 500 μM, 2 DAA p.m. (14:00-19:50), read-out: % WU 2 DAA PM
[7] = 60 h, Table B1, sprayed at 500 μM, cumulative total WU (0-2.5 DAA), read-out: % WU Total 0 to 2.5 DAA

| Structure (SMILES) | melting point [°C] | change in vivo at 500 µM [1, 2] [%] | change in vivo at 500 µM [1, 3] [%] | change in vivo at 500 µM [1, 4] [%] | change in vivo at 500 µM [1, 5] [%] | change in vivo at 500 µM [1, 6] [%] | change in vivo at 500 µM [1, 7] [%] | also measured |
| --- | --- | --- | --- | --- | --- | --- | --- | --- |
| CCCn1c(=O)ccc2cc(CNS(=O)(=O)c3ccccc3)ccc21 [Compound 7.001, N-[(2-oxo-1-propyl-6-quinolyl)methyl]benzenesulfonamide] | 204 to 206 | -17.1 | -9.1 | -6.9 | -6.9 | -2.5 | -8.8 |  |
| CCN1C(=O)CCc2cc(CNS(=O)(=O)c3ccccc3)ccc21 [Compound 2.001, N-[(1-ethyl-2-oxo-3,4-dihydroquinolin-6-yl)methyl]benzenesulfonamide] | 114 to 124 | -35.3 | -29.1 | -28.1 | -19.6 | -14.3 | -25.7 | change in vivo at 31.25 µM ([1]; 24 h, Table B2, rate 31.25 uM, 1 DAA a.m., read-out: % WU 1DAA AM): -1.8%; change in vivo at 31.25 µM ([1]; 24 h, Table B2, rate 31.25 uM, 1 DAA p.m., read-out: % WU 1DAA PM): -0.9%; change in vivo at 125 µM ([1]; 24 h, Table B2, rate 125 uM, 1 DAA a.m., read-out: % WU 1DAA AM): -10.1%; change in vivo at 125 µM ([1]; 24 h, Table B2, rate 125 uM, 1 DAA p.m., read-out: % WU 1DAA PM): -10.9%; change in vivo at 500 µM ([1]; 24 h, Table B2, rate 500 uM, 1 DAA a.m., read-out: % WU 1DAA AM): -36.3%; change in vivo at 500 µM ([1]; 24 h, Table B2, rate 500 uM, 1 DAA p.m., read-out: % WU 1DAA PM): -33.2%; change in vivo at 31.25 µM ([1]; 48 h, Table B2, rate 31.25 uM, 2 DAA a.m., read-out: % WU 2 DAA AM): -2.7%; change in vivo at 31.25 µM ([1]; 48 h, Table B2, rate 31.25 uM, 2 DAA p.m., read-out: % WU 2 DAA PM): -1.5%; change in vivo at 125 µM ([1]; 48 h, Table B2, rate 125 uM, 2 DAA a.m., read-out: % WU 2 DAA AM): -11.7%; change in vivo at 125 µM ([1]; 48 h, Table B2, rate 125 uM, 2 DAA p.m., read-out: % WU 2 DAA PM): -10.1%; change in vivo at 500 µM ([1]; 48 h, Table B2, rate 500 uM, 2 DAA a.m., read-out: % WU 2 DAA AM): -24.2%; change in vivo at 500 µM ([1]; 48 h, Table B2, rate 500 uM, 2 DAA p.m., read-out: % WU 2 DAA PM): -19.5%; change in vivo at 31.25 µM ([1]; 60 h, Table B2, rate 31.25 uM, cumulative total WU (0-2.5 DAA), read-out: % WU Total 0 to 2.5 DAA): -1.7%; change in vivo at 125 µM ([1]; 60 h, Table B2, rate 125 uM, cumulative total WU (0-2.5 DAA), read-out: % WU Total 0 to 2.5 DAA): -11.1%; change in vivo at 500 µM ([1]; 60 h, Table B2, rate 500 uM, cumulative total WU (0-2.5 DAA), read-out: % WU Total 0 to 2.5 DAA): -31.8%; % WU 0 DAA AM* ([1]; Table B2, rate 31.25 uM): −0.7%; % WU 0 DAA AM* ([1]; Table B2, rate 125 uM): −10.4%; % WU 0 DAA AM* ([1]; Table B2, rate 500 uM): −41.2% |
| CCCN1C(=O)CCc2cc(CNS(=O)(=O)c3ccc(Cl)s3)ccc21 [Compound 3.073, 5-chloro-N-[(2-oxo-1-propyl-3,4-dihydroquinolin-6-yl)methyl]thiophene-2-sulfonamide] | 144 to 147 | -44.6 | -54.9 | -52.1 | -53.3 | -48.7 | -51 |  |
| CCN1C(=O)CCc2cc(CNS(=O)(=O)/C=C/c3ccc(Br)cc3)ccc21 [Compound 2.052, (E)-2-(4-bromophenyl)-N-[(1-ethyl-2-oxo-3,4-dihydroquinolin-6-yl)methyl]ethenesulfonamide] | 119 to 124 |  |  |  |  |  |  |  |
| CCCN1C(=O)CCc2cc(CNS(=O)(=O)c3ccc(C(F)(F)F)cc3)ccc21 [Compound 3.015, N-[(2-oxo-1-propyl-3,4-dihydroquinolin-6-yl)methyl]-4-(trifluoromethyl)benzenesulfonamide] | 138 to 140 |  |  |  |  |  |  |  |
| CCN1C(=O)CCc2cc(CNS(=O)(=O)c3ccc(OC)cc3)ccc21 [Compound 2.010, N-[(1-ethyl-2-oxo-3,4-dihydroquinolin-6-yl)methyl]-4-methoxy-benzenesulfonamide] | 147 to 150 | -15.2 | -2.6 | -1.7 | -3.6 | -2.4 | -4.3 |  |
| CCCN1C(=O)CCc2cc(CNS(=O)(=O)c3cccs3)ccc21 [Compound 3.072, N-[(2-oxo-1-propyl-3,4-dihydroquinolin-6-yl)methyl]thiophene-2-sulfonamide] | 151 to 153 | -39.4 | -45.9 | -40.9 | -39.8 | -32.2 | -40.1 |  |
| CCN1C(=O)CCc2cc(CNS(=O)(=O)c3ccc(C)cc3)ccc21 [Compound 2.012, N-[(1-ethyl-2-oxo-3,4-dihydroquinolin-6-yl)methyl]-4-methyl-benzenesulfonamide] | 202 to 203 |  |  |  |  |  |  |  |
| CCCN1C(=O)CCc2cc(CNS(=O)(=O)c3ccc(OC(C)C)cc3)ccc21 [Compound 3.016, 4-isopropoxy-N-[(2-oxo-1-propyl-3,4-dihydroquinolin-6-yl)methyl]benzenesulfonamide] | 138 to 139 | -3.6 | -1.3 | -0.5 | -1.1 | 0 | -1.2 |  |
| CCN1C(=O)CCc2cc(CNS(=O)(=O)c3cn(C)cn3)ccc21 [Compound 2.063, N-[(1-ethyl-2-oxo-3,4-dihydroquinolin-6-yl)methyl]-1-methyl-imidazole-4-sulfonamide] | 165 to 167 |  |  |  |  |  |  |  |
| CCCN1C(=O)CCc2cc(CNS(=O)(=O)c3ccc(C)cc3)ccc21 [Compound 3.012, 4-methyl-N-[(2-oxo-1-propyl-3,4-dihydroquinolin-6-yl)methyl]benzenesulfonamide] | 153 to 154 | -43.9 | -1.8 | 2.1 | 1.7 | 3 | -5.8 |  |
| CCN1C(=O)CCc2cc(CNS(=O)(=O)C3CC3)ccc21 [Compound 2.018, N-[(1-ethyl-2-oxo-3,4-dihydroquinolin-6-yl)methyl]cyclopropanesulfonamide] | 104 to 106 |  |  |  |  |  |  |  |
| CCCN1C(=O)CCc2cc(CNS(=O)(=O)c3ccccc3C)ccc21 [Compound 3.011, 2-methyl-N-[(2-oxo-1-propyl-3,4-dihydroquinolin-6-yl)methyl]benzenesulfonamide] | 163 to 165 | -3.6 | -3.6 | -2.3 | -3.6 | -2.4 | -3 |  |
| CCCN1C(=O)CCc2cc(CNS(=O)(=O)/C=C/c3cccc(Br)c3)ccc21 [Compound 3.070, (E)-2-(3-bromophenyl)-N-[(2-oxo-1-propyl-3,4-dihydroquinolin-6-yl)methyl]ethenesulfonamide] | 148 to 153 |  |  |  |  |  |  |  |
| CCN1C(=O)CCc2cc(CNS(=O)(=O)c3ccccc3C)ccc21 [Compound 2.011, N-[(1-ethyl-2-oxo-3,4-dihydroquinolin-6-yl)methyl]-2-methyl-benzenesulfonamide] | 203 to 206 |  |  |  |  |  |  |  |
| CCCN1C(=O)CCc2cc(CNS(=O)(=O)c3ccc(C)cc3C)ccc21 | 166 to 167 |  |  |  |  |  |  |  |
| CCN1C(=O)CCc2cc(CNS(=O)(=O)c3ccccc3Br)ccc21 [Compound 2.017, 2-bromo-N-[(1-ethyl-2-oxo-3,4-dihydroquinolin-6-yl)methyl]benzenesulfonamide] | 206 to 207 |  |  |  |  |  |  |  |
| CCCN1C(=O)CCc2cc(CNS(=O)(=O)/C=C/c3ccc(C)cc3)ccc21 [Compound 3.059, (E)-N-[(2-oxo-1-propyl-3,4-dihydroquinolin-6-yl)methyl]-2-(p-tolyl)ethenesulfonamide] | 172 to 174 |  |  |  |  |  |  |  |
